Source: US8143282B2, “Heterocyclic compounds” (S*BIO Pte Ltd., priority 2005, dated 2012)

How the values were obtained:
[1] = tested on: Colo205 cells; assay: Cell-based proliferation assay for GI50 (CyQUANT), Colo205; details: Homo sapiens, COLO 205, 96 h treatment, read-out: Cellular or Growth Inhibition Activity in Colo205 cells, GI50
Method in brief: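 Cells were seeded at 1000 (PC3), 5000 (Colo205), 6000 (HCT116) or 4000 (HEP3B) per well and left 24 h at 37° C. Compound treatment lasted 96 h. Growth was read by CyQUANT, and GI50 (50% growth inhibition) came from dose-response curves.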

[2] = tested on: A2780; assay: Cell-based proliferation assay for GI50 (CyQUANT), A2780; details: Homo sapiens; A2780, 96 h treatment; read-out: Cellular or Growth Inhibition Activity, GI50, A2780
Experimental: (§1) Human colon cancer cell lines (Colo205, HCT116), Ovarian cancer cell line (A2780), Hepatoma cell line (HEP3B), Prostate cancer cell line (PC3) were obtained from ATCC or ECACC. Colo205 cells were cultivated in RPMI 1640 containing 2 mM L-Glutamine, 5% FBS, 1.0 mM Na Pyruvate, 1 U/ml of penicillin and 1 μg of streptomycin. HCT116 cells were cultivated in McCoy's containing RPMI 1640 containing 2 mM L-Glutamine, 5% FBS, 1 U/ml of penicillin and 1 μg of streptomycin. A2780 cells were cultivated in RPMI 1640 containing 2 mM L-Glutamine, 5% FBS, 1 U/ml of penicillin and 1 μg of streptomycin. HEP3B cells were cultivated in EMEM containing 2 mM L-glutamine, 5% FBS, 1% non essential amino acid, 1 mM Na Pyruvate, 1 U/ml of penicillin and 1 μg of streptomycin. PC3 cells were cultivated in F12K, 2 mM L-glutamine, 5% FBS, 1 U/ml of penicillin and 1 μg of streptomycin. PC3, Colo205, and HCT116 cells were seeded in 96-wells plate at 1000, 5000 and 6000 cells per well respectively. A2780 and HEP3B cells were seeded in 96-wells plate at 4000 cells per well respectively. The plates were incubated at 37° C., 5% CO2, for 24 h. Cells were treated with compounds at various concentrations for 96 h. Cell growth was then monitored using CyQUANT® cell proliferation assay (Invitrogen Pte Ltd). Dose response curves were plotted to determine GI50 values for the compounds using XL-fit (ID Business Solution, Emeryville, Calif.). GI50 is defined as the concentration of compound required for 50% inhibition of cell growth.

[3] = target: T1, HDAC1 enzyme (Homo sapiens, UniProt Q13547); assay: In vitro HDAC assay for determination of IC50 values (BIOMOL fluorescent-based HDAC activity assay); type: biochemical
T1 construct: Amplification of human HDAC1 coding region from this cDNA library was cloned separately into the baculovirus expression pDEST20 vector; made in house; host or cells: SF9 insect cells, pDEST20-HDAC1 baculovirus
Method in brief: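 Recombinant GST-HDAC1, cloned from SW620 cDNA and expressed in Sf9 cells, tested in a fluorogenic Fluor de Lys deacetylase assay. Developer was added for 10 min and fluorescence read at 360/460 nm. IC50 came from concentration series.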

[4] = tested on: acetylated histone H3; assay: Histone H3 acetylation assay (immuno-blotting) in Colo205 cells; type: cell-based, Human; details: 10 μM, 24 h, western-blot
Experimental: A hallmark of histone deacetylase (HDAC) inhibition is the increase in the acetylation level of histones. Histone acetylation, including H3, H4 and H2A can be detected by immuno-blotting (western-blot). Colo205 cells, approximately 5×10^5 cells, were seeded in the previously described medium, cultivated for 24 h and subsequently treated with HDAC inhibitory agents and a positive control at a final concentration of 10 μM. After 24 h, cells were harvested and lysed according to the instruction from Sigma Mammalian Cell Lysis Kit. The protein concentration was quantified using BCA method (Sigma Pte Ltd). The protein lysate was separated using 4-12% bis-tris SDS-PAGE gel (Invitrogen Pte Ltd) and was transferred onto PVDF membrane (BioRad Pte Ltd). The membrane was probed using primary antibody specific for acetylated histone H3 (Upstate Pte Ltd). The detection antibody, goat anti rabbit antibody conjugated with HRP was used according to the manufacturing instruction (Pierce Pte Ltd). After removing the detection antibody from the membrane, an enhanced chemiluminescent substrate for detection of HRP (Pierce Pte Ltd) was added onto the membrane. After removing the substrate, the membrane was exposed to an X-ray film (Kodak) for 1 sec-20 mins. The X-ray film was developed using the X-ray film processor. The density of each band observed on the developed film could be qualitatively analyzed using UVP Bioimaging software (UVP, Inc, Upland, Calif.). The values were then normalized against the density of actin in the corresponding samples to obtain the expression of the protein.

[5] = tested on: HCT116; assay: Cell-based proliferation assay for GI50 (CyQUANT), HCT116; details: Homo sapiens, HCT-116; HCT116, 96 h treatment; read-out: Cellular or Growth Inhibition Activity, GI50, HCT116
Experimental: as §1

T1 sequence (Q13547 whole entry): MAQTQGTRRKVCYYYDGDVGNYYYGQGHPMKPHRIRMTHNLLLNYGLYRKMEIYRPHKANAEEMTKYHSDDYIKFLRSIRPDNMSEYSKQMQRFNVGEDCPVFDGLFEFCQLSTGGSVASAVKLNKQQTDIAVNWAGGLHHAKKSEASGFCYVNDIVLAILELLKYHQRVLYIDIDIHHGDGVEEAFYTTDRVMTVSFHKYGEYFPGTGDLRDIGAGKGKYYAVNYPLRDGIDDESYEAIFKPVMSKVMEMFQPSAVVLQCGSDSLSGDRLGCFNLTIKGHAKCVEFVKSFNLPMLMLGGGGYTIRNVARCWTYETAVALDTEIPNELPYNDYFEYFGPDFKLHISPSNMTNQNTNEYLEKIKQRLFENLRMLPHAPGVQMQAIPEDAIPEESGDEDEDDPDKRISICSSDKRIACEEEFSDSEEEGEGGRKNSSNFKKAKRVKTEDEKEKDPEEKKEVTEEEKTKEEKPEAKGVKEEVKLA

Compound `CCCc1nc2cc(/C=C/C(=O)NO)ccc2n1CCNCCC(C)(C)C` [Compound 130, 3-{1-[2-(3,3-Dimethyl-butylamino)-ethyl]-2-propyl-1H-benzoimidazol-5-yl}-N-hydroxy-acrylamide] has a GI50 [1] of 0.15 µM, a GI50 [2] of under 0.5 µM and an IC50 [3] of 0.036 µM. For the same compound, the “Histone Acetylation activities (Histone-3)” value [4] was “Active” and the GI50 [5] was under 0.5 µM.
